Experimental data from the supplement of paper PMC10307832.

Assays:
Assay in all cases: relative viability (nuclei count vs DMSO), 5 days (fraction); higher = more cells survive
ABC-1 = system: ABC-1
Outline: (§1)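 For relative viability, nuclei counts in treated wells were divided by those in vehicle wells. Lung cancer cell lines had been pin-tool dosed in 1536-well plates the day after seeding and cultured for 5 days, then fixed and stained in one step (final 0.05% Triton X-100, 1% formaldehyde, 1 ug/ml Hoechst) and imaged at 4×. Doses were one drug alone or a fixed anchor-drug dose plus five library-drug doses (not always all listed) in √10 steps, and values are duplicate-plate medians.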

COR-L23 = system: COR-L23
Outline: as §1

EMC-BAC-2 = system: EMC-BAC-2
Outline: as §1

HARA = system: HARA
Outline: as §1

HCC-15 = system: HCC-15
Outline: as §1

HCC-366 = system: HCC-366
Outline: as §1

HCC-78 = system: HCC-78
Outline: as §1

HOP-62 = system: HOP-62
Outline: as §1

LC-2-ad = system: LC-2-ad
Outline: as §1

NCI-H1395 = system: NCI-H1395
Outline: as §1

NCI-H1793 = system: NCI-H1793
Outline: as §1

NCI-H1944 = system: NCI-H1944
Outline: as §1

NCI-H1993 = system: NCI-H1993
Outline: as §1

NCI-H2023 = system: NCI-H2023
Outline: as §1

NCI-H2126 = system: NCI-H2126
Outline: as §1

NCI-H2228 = system: NCI-H2228
Outline: as §1

NCI-H23 = system: NCI-H23
Outline: as §1

NCI-H2405 = system: NCI-H2405
Outline: as §1

NCI-H358 = system: NCI-H358
Outline: as §1

NCI-H838 = system: NCI-H838
Outline: as §1

SK-LU-1 = system: SK-LU-1
Outline: as §1

Structure (SMILES): O=c1cc(N2CCOCC2)oc2c(-c3cccc4c3sc3ccccc34)cccc12 + Cc1nc(NC(=O)N2CCC[C@H]2C(N)=O)sc1-c1ccnc(C(C)(C)C(F)(F)F)c1 [Alpelisib] (partner 2 µM)
- relative viability (ABC-1; first compound 0.01 µM): 1.11
- relative viability (ABC-1; first compound 0.03162 µM): 0.939
- relative viability (ABC-1; first compound 0.1 µM): 1.01
- relative viability (ABC-1; first compound 0.3162 µM): 0.883
- relative viability (ABC-1; first compound 1 µM): 0.857
- relative viability (COR-L23; first compound 0.01 µM): 0.871
- relative viability (COR-L23; first compound 0.03162 µM): 0.718
- relative viability (COR-L23; first compound 0.1 µM): 0.922
- relative viability (COR-L23; first compound 0.3162 µM): 0.795
- relative viability (COR-L23; first compound 1 µM): 0.753
- relative viability (EMC-BAC-2; first compound 0.01 µM): 0.726
- relative viability (EMC-BAC-2; first compound 0.03162 µM): 0.781
- relative viability (EMC-BAC-2; first compound 0.1 µM): 0.813
- relative viability (EMC-BAC-2; first compound 0.3162 µM): 0.759
- relative viability (EMC-BAC-2; first compound 1 µM): 0.722
- relative viability (HARA; first compound 0.01 µM): 0.854
- relative viability (HARA; first compound 0.03162 µM): 0.789
- relative viability (HARA; first compound 0.1 µM): 0.88
- relative viability (HARA; first compound 0.3162 µM): 0.809
- relative viability (HARA; first compound 1 µM): 0.845
- relative viability (HCC-15; first compound 0.01 µM): 0.87
- relative viability (HCC-15; first compound 0.03162 µM): 0.92
- relative viability (HCC-15; first compound 0.1 µM): 0.971
- relative viability (HCC-15; first compound 0.3162 µM): 0.859
- relative viability (HCC-15; first compound 1 µM): 0.828
- relative viability (HCC-366; first compound 0.01 µM): 0.386
- relative viability (HCC-366; first compound 0.03162 µM): 0.469
- relative viability (HCC-366; first compound 0.1 µM): 0.44
- relative viability (HCC-366; first compound 0.3162 µM): 0.372
- relative viability (HCC-366; first compound 1 µM): 0.367
- relative viability (HCC-78; first compound 0.01 µM): 0.374
- relative viability (HCC-78; first compound 0.03162 µM): 0.305
- relative viability (HCC-78; first compound 0.1 µM): 0.299
- relative viability (HCC-78; first compound 0.3162 µM): 0.406
- relative viability (HCC-78; first compound 1 µM): 0.331
- relative viability (HOP-62; first compound 0.01 µM): 1.08
- relative viability (HOP-62; first compound 0.03162 µM): 0.958
- relative viability (HOP-62; first compound 0.1 µM): 1.24
- relative viability (HOP-62; first compound 0.3162 µM): 1.19
- relative viability (HOP-62; first compound 1 µM): 1.1
- relative viability (LC-2-ad; first compound 0.01 µM): 0.91
- relative viability (LC-2-ad; first compound 0.1 µM): 0.976
- relative viability (LC-2-ad; first compound 0.3162 µM): 0.839
- relative viability (LC-2-ad; first compound 1 µM): 0.906
- relative viability (NCI-H1395; first compound 0.01 µM): 1.1
- relative viability (NCI-H1395; first compound 0.03162 µM): 0.976
- relative viability (NCI-H1395; first compound 0.1 µM): 0.989
- relative viability (NCI-H1395; first compound 0.3162 µM): 1.09
- relative viability (NCI-H1395; first compound 1 µM): 0.956
- relative viability (NCI-H1793; first compound 0.01 µM): 0.607
- relative viability (NCI-H1793; first compound 0.03162 µM): 0.866
- relative viability (NCI-H1793; first compound 0.1 µM): 0.7
- relative viability (NCI-H1793; first compound 0.3162 µM): 0.705
- relative viability (NCI-H1793; first compound 1 µM): 0.484
- relative viability (NCI-H1944; first compound 0.01 µM): 0.814
- relative viability (NCI-H1944; first compound 0.03162 µM): 0.833
- relative viability (NCI-H1944; first compound 0.1 µM): 0.82
- relative viability (NCI-H1944; first compound 0.3162 µM): 0.847
- relative viability (NCI-H1944; first compound 1 µM): 0.801
- relative viability (NCI-H1993; first compound 0.01 µM): 0.658
- relative viability (NCI-H1993; first compound 0.03162 µM): 0.741
- relative viability (NCI-H1993; first compound 0.1 µM): 0.797
- relative viability (NCI-H1993; first compound 0.3162 µM): 0.791
- relative viability (NCI-H1993; first compound 1 µM): 0.722
- relative viability (NCI-H2023; first compound 0.01 µM): 0.653
- relative viability (NCI-H2023; first compound 0.03162 µM): 0.621
- relative viability (NCI-H2023; first compound 0.1 µM): 0.618
- relative viability (NCI-H2023; first compound 0.3162 µM): 0.532
- relative viability (NCI-H2023; first compound 1 µM): 0.487
- relative viability (NCI-H2126; first compound 0.01 µM): 0.721
- relative viability (NCI-H2126; first compound 0.03162 µM): 0.736
- relative viability (NCI-H2126; first compound 0.1 µM): 0.762
- relative viability (NCI-H2126; first compound 0.3162 µM): 0.733
- relative viability (NCI-H2126; first compound 1 µM): 0.729
- relative viability (NCI-H2228; first compound 0.03162 µM): 0.928
- relative viability (NCI-H2228; first compound 0.1 µM): 0.713
- relative viability (NCI-H2228; first compound 0.3162 µM): 0.877
- relative viability (NCI-H2228; first compound 1 µM): 0.481
- relative viability (NCI-H23; first compound 0.01 µM): 0.71
- relative viability (NCI-H23; first compound 0.03162 µM): 0.662
- relative viability (NCI-H23; first compound 0.3162 µM): 0.665
- relative viability (NCI-H23; first compound 1 µM): 0.745
- relative viability (NCI-H2405; first compound 0.01 µM): 0.895
- relative viability (NCI-H2405; first compound 0.03162 µM): 0.885
- relative viability (NCI-H2405; first compound 0.1 µM): 0.838
- relative viability (NCI-H2405; first compound 0.3162 µM): 0.835
- relative viability (NCI-H2405; first compound 1 µM): 0.827
- relative viability (NCI-H358; first compound 0.01 µM): 0.811
- relative viability (NCI-H358; first compound 0.03162 µM): 0.807
- relative viability (NCI-H358; first compound 0.1 µM): 0.841
- relative viability (NCI-H358; first compound 0.3162 µM): 0.847
- relative viability (NCI-H358; first compound 1 µM): 0.83
- relative viability (NCI-H838; first compound 0.01 µM): 0.961
- relative viability (NCI-H838; first compound 0.03162 µM): 0.99
- relative viability (NCI-H838; first compound 0.1 µM): 1.03
- relative viability (NCI-H838; first compound 0.3162 µM): 1.02
- relative viability (NCI-H838; first compound 1 µM): 0.975
- relative viability (SK-LU-1; first compound 0.03162 µM): 0.966
- relative viability (SK-LU-1; first compound 0.1 µM): 0.985
- relative viability (SK-LU-1; first compound 0.3162 µM): 1.09
- relative viability (SK-LU-1; first compound 1 µM): 1.01
